Test results: patent US20080287396A1, “Phosphonated Fluoroquinolones, Antibacterial Analogs Thereof, and Methods for the Prevention and Treatment of Bone and Joint Infections” (TARGANTA THERAPEUTICA INC., priority 2005, published 2008)
Entries after “also recorded” stand apart in the source; their conditions may differ.

Assays:
[1] = system: S. aureus ATCC 13709; experiment: Prophylactic model of bone infection in rats; type: in vivo, rat; conditions: for prophylactic effect in rat model of bone infection, in words: Table 4 and FIGS. 6-8, doses as in Table 4
Experimental: To determine the activity in vivo of bisphosphonated prodrugs of fluoroquinolones, compounds 52 and 107, derivatives of parent compounds moxifloxacin 3 (for 52), and compounds 39, 44, 49, 54, 121, 129, 141, 145, 149, derivatives of parent compound gatifloxacin 15, were used in a prophylactic model for infection. Specifically, S. aureus ATCC 13709 cells were grown overnight at 37° C. in brain heart infusion broth (BHIB). Cells were subcultured into fresh BHIB and incubated for 4 to 5 h at 37° C. The cells were washed twice with phosphate-buffered saline (PBS) and resuspended in BHIB supplemented with 10% (vol./vol.) fetal bovine serum at a density of approximately 10^10 colony forming units (CFU)/ml (based upon turbidimetry). The suspension was aliquoted and a portion was used to check the CFU count. The culture was stored frozen (−80° C.) and was used without subculture. For use as an inoculum the culture was thawed, diluted in PBS and kept in an ice bath until it was used.
Animals were infected as described by O'Reilly et al. (Antimicrobial Agents and Chemotherapy (1992), 36(12): 2693-97) to generate the bone infection. Female CD rats (age, 57 to 70 days; n=5/group; Charles River, St-Constant, Canada) were anaesthetized by isofluorane before and during the surgery. Following complete induction of anesthesia, the rat was placed ventral side up and hair was shaved from the surgical site. The skin over the leg was cleaned and disinfected (proviodine-ethanol 70%). A longitudinal incision below the knee joint was made in the sagital plane. The incision was made over the bone below the “knee joint” (tibia head or condyle) but not completely extending to the ankle. A high speed drill fitted with a 2 mm bulb bit was used to drill a hole into the medullar cavity of the tibia. Rats were injected intra-tibially with 0.05 ml 5% sodium morrhuate (sclerosing agent) and then with 0.05 ml of S. aureus suspension (ca. 5×10^5 CFU/rat). The hole was sealed by applying a small amount of dry dental cement which immediately absorbs fluids and adheres to the site. The wound was closed using 3 metal skin clips. Moxifloxacin 3 (as a positive control) was injected once at 10 mg/kg intravenously 1 h postinfection in saline, while the fluoroquinolone prodrugs (prepared in 0.9% saline) were injected as a single intravenous bolus dose at different time points prior to the infection. For comparison, the parent drug (moxifloxacin 3 or gatifloxacin 15) was also injected intravenously once at a molar equivalent dose at the same time point prior the infection.
Infected rats were sacrificed by CO2 asphyxiation 24 h postinfection to monitor the bacterial CFU count. Infected tibiae were removed, dissected free of soft tissue, and weighed. The bones were ground using a metal ball mill, resuspended in 5 ml 0.9% NaCl, serially diluted and processed for quantitative cultures. For compounds 39, 44, 49, 54, 141, 145, 149, 1 ml of the 0.9% NaCl solution was added to 50 mg of charcoal before serial dilutions. Treatment efficacies were measured in terms of Log viable bacteria (Log CFU per gram of bone). The results obtained for each group of rats were evaluated by calculating the mean Log CFU and standard deviation. The limit of detection is 2 Log CFU/g of bone. Statistical comparisons of viable bacterial counts for the different treated and untreated groups were performed with Dunnett's multiple-comparison test. Differences were considered significant when the P value was <0.05 when comparing treated infected animals to the untreated infected ones.

[2] = Bone powder binding, fluorometric detection; conditions: for Binding to bone (%) Fluorescence: 1 mg/ml compound, bone meal powder 10 mg/ml in PBS, 37° C., 1 h; for binding to osseous matter, in words: bisphosphonates bearing three hydroxy groups
Experimental: The ability of the example molecules to bind to bone powder was established in two parallel fashions, using either LC/MS or fluorometric detection. For LC/MS detection, a stock solution (5 mM) of the compound to be tested was added to 0.1M Tris-HCl buffer pH 7, 0.15M NaCl to reach a final concentration of 100 μM. Triplicate samples (1 mL) of the compound solutions were intensively shaken for 10 min with or without 25 mg of fresh or 20 mg of vacuum dried ground rat tibia bone. The samples were then centrifuged for 15 min at 10 000 g. The presence of unbound compound was measured by injection of 30 μL of each of the supernatants into an Agilent 1100™ LC/UV system. For fluorometric detection, an individual compound was dissolved in PBS or water (compound 52) and resuspended at a concentration of 1 mg/ml in a slurry of bone meal powder (Now Foods, Bloomingdale, Ill., USA) in PBS at 10 mg/ml. The suspension of drug/prodrug in bone meal powder was incubated at 37° C. for 1 h to allow for binding, and centrifuged at 13 000 rpm for 2 min, before recovering the supernatant. The bone meal powder pellet was then washed three times with 1 ml of PBS. All supernatants were saved and assessed for fluoroquinolone content by fluorescence measurements at excitation/emission wavelengths of 280/465 nm. The amount of fluoroquinolone was determined from standard curves generated for each experiment. Amount of drug/prodrug bound to bone powder was deduced from the difference between the input amount (typically 1 mg) and the amount recovered in the supernatants after binding. In all binding experiments, >99% of input drug was recovered in the supernatant for the parent drugs.

[3] = 15 mg/kg IV, 2 days prior to infection

Compound | prophylactic effect in rat model of bone infection, in words [1] | Binding to bone (%) Fluorescence [2] | further results
COc1c(N2CCN(CCC(=O)c3ccc(OCCCC(P(=O)(O)O)P(=O)(O)O)cc3)C(C)C2)c(F)cc2c(=O)c(C(=O)O)cn(C3CC3)c12 (stereo not drawn) [Compound 121, 1-cyclopropyl-6-fluoro-1,4-dihydro-7-(4-(3-(4-(4,4-bisphosphonobutoxy)phenyl)-3-oxopropyl)-3-methylpiperazin-1-yl)-8-methoxy-4-oxoquinoline-3-carboxylic acid] | efficient prophylactic effect | 94.7% | Measured bacterial titer (Log CFU/g of bone) Test compound ([1]; 20.8 mg/kg IV, 1 day prior to infection): 3.01 ± 0.47 Log CFU/g of bone
O=C(O)c1cn(C2CC2)c2cc(N3CCNCC3)c(F)cc2c1=O [Compound 6, Ciprofloxacin, reference compound] |  | 0% | 
COc1c(N2CCN(Cc3oc(=O)oc3-c3ccc(P(=O)(O)CP(=O)(O)O)cc3)C(C)C2)c(F)cc2c(=O)c(C(=O)O)cn(C3CC3)c12 (stereo not drawn) [Compound 129, 1-Cyclopropyl-6-fluoro-1,4-dihydro-8-methoxy-7-(3-methyl-4-((2-oxo-5-(4-(phosphonomethylphosphinoyl)phenyl)-1,3-dioxol-4-yl)methyl)piperazin-1-yl)-4-oxoquinoline-3-carboxylic acid] | unable to produce a positive result in vivo | 63.7% | Measured bacterial titer (Log CFU/g of bone) Test compound ([1]; 10.75 mg/kg IV, 2 days prior to infection): 6.14 ± 1.05 Log CFU/g of bone; binding to osseous matter, in words [2]: less effectively bound
COc1c(N2C[C@@H]3CCCN[C@@H]3C2)c(F)cc2c(=O)c(C(=O)SCCCC(P(=O)(O)O)P(=O)(O)O)cn(C3CC3)c12 [Compound 94, S-4,4-bisphosphonobutyl 7-((4aS,7aS)-octahydropyrrolo[3,4-b]pyridin-6-yl)-1-cyclopropyl-6-fluoro-1,4-dihydro-8-methoxy-4-oxoquinoline-3-carbothioate] |  | 99.9% | 
COc1c(N2CCN(C(=O)CC(C)(C)c3cc(P(=O)(O)CP(=O)(O)O)ccc3OP(=O)(O)O)C(C)C2)c(F)cc2c(=O)c(C(=O)O)cn(C3CC3)c12 (stereo not drawn) [Compound 153, 7-(4-(3-(2-phosphoryloxy-5-((phosphonomethyl)phosphonoyl)phenyl)-3-methylbutanoyl)-3-methylpiperazin-1-yl)-1-cyclopropyl-6-fluoro-1,4-dihydro-8-methoxy-4-oxoquinoline-3-carboxylic acid] | unable to produce a positive result in vivo | 0% | Measured bacterial titer (Log CFU/g of bone) Test compound [1, 3]: 4.08 ± 0.54 Log CFU/g of bone; binding to osseous matter, in words [2]: less effectively bound; also recorded: not bound at all
COc1c(N2CCNC(C)C2)c(F)cc2c(=O)c(C(=O)OCC(=O)NCCCC[C@@H](NC(=O)COC(=O)c3cn(C4CC4)c4c(OC)c(N5CCNC(C)C5)c(F)cc4c3=O)C(=O)NC(P(=O)(O)O)P(=O)(O)O)cn(C3CC3)c12 (stereo partly drawn) [Compound 134] |  | 92.8% | 
COc1c(N2CCNC(C)C2)c(F)cc2c(=O)c(C(=O)SCCCC(P(=O)(O)O)P(=O)(O)O)cn(C3CC3)c12 (stereo not drawn) [Compound 96, S-4,4-bisphosphonobutyl 7-(3-methylpiperazin-1-yl)-1-cyclopropyl-6-fluoro-1,4-dihydro-8-methoxy-4-oxoquinoline-3-carbothioate] |  | 98.7% | 
CCCC(=O)Oc1ccc(P(=O)(O)CP(=O)(O)O)cc1C(C)(C)CC(=O)N1CCN(c2c(F)cc3c(=O)c(C(=O)O)cn(C4CC4)c3c2OC)CC1C (stereo not drawn) [Compound 149, 7-(4-(3-(2-butyroxy-5-((phosphonomethyl)phosphonoyl)phenyl)-3-methylbutanoyl)-3-methylpiperazin-1-yl)-1-cyclopropyl-6-fluoro-1,4-dihydro-8-methoxy-4-oxoquinoline-3-carboxylic acid] | unable to produce a positive result in vivo | 89.6% | Measured bacterial titer (Log CFU/g of bone) Test compound [1, 3]: 5.16 ± 0.72 Log CFU/g of bone; binding to osseous matter, in words [2]: less effectively bound
COc1c(N2C[C@@H]3CCCN[C@@H]3C2)c(F)cc2c(=O)c(C(=O)SCC(=O)NC(P(=O)(O)O)P(=O)(O)O)cn(C3CC3)c12 [Compound 99, S-(1,1-Bisphosphonomethylcarbamoyl)methyl 1-cyclopropyl-6-fluoro-1,4-dihydro-7-((4aS,7aS)-octahydropyrrolo[3,4-b]pyridin-6-yl)-8-methoxy-4-oxoquinoline-3-carbothioate] |  | 99.0% | 
COc1c(N2CCN(C(=O)CC(P(=O)(O)O)P(=O)(O)O)C(C)C2)c(F)cc2c(=O)c(C(=O)O)cn(C3CC3)c12 (stereo not drawn) [Compound 112, 7-(4-(3,3-bisphosphonopropionyl)-3-methylpiperazin-1-yl)-1-cyclopropyl-6-fluoro-1,4-dihydro-8-methoxy-4-oxoquinoline-3-carboxylic acid] |  | 82.5% | 
COc1c(N2C[C@@H]3CCCN[C@@H]3C2)c(F)cc2c(=O)c(C(=O)OCC(=O)N(C)C(P(=O)(O)O)P(=O)(O)O)cn(C3CC3)c12 [Compound 80, (N-Methyl-1,1-Bisphosphonomethylcarbamoyl)methyl 1-cyclopropyl-6-fluoro-1,4-dihydro-7-((4aS,7aS)-octahydropyrrolo[3,4-b]pyridin-6-yl)-8-methoxy-4-oxoquinoline-3-carboxylate] |  | 97.3% | 
COc1c(N2C[C@@H]3CCCN[C@@H]3C2)c(F)cc2c(=O)c(C(=O)OCC(=O)Nc3ccc(CC(P(=O)(O)O)P(=O)(O)O)cc3)cn(C3CC3)c12 [Compound 62, (4-(2,2-Bisphosphonoethyl)phenylcarbamoyl)methyl 1-cyclopropyl-6-fluoro-1,4-dihydro-7-((4aS,7aS)-octahydropyrrolo[3,4-b]pyridin-6-yl)-8-methoxy-4-oxoquinoline-3-carboxylate] |  | 97.2% | 
COc1c(N2C[C@@H]3CCCN(C(=O)OCC(=O)Nc4ccc(CC(P(=O)(O)O)P(=O)(O)O)cc4)[C@@H]3C2)c(F)cc2c(=O)c(C(=O)O)cn(C3CC3)c12 [Compound 117, 7-((4aS,7aS)-1-(((4-(2,2-bisphosphonoethyl)phenylcarbamoyl)methoxy)carbonyl)-octahydropyrrolo[3,4-b]pyridin-6-yl)-1-cyclopropyl-6-fluoro-1,4-dihydro-8-methoxy-4-oxoquinoline-3-carboxylic acid] |  | 99.4% | 
